pIC50: −log10 of the molar value.
Key:
Assay in all cases: Ras-Raf disruption / FRET / MOA assay (BRAF RBD)
Assay type in all cases: biochemical
KRAS G12C = KRAS G12C (Homo sapiens, UniProt P01116+P62937, G12C); settings: Ras-Raf disruption, with Cyclophilin A; read-out: KRAS G12C FRET data IC50
How it was run: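 His6-K-Ras G12C-GMPPNP (12.5 nM), GST-BRAF RBD (50 nM) and tagless Cyclophilin A (25 μM) incubated 3 h at 25 °C with compound (10-point 3-fold series from 30 μM), pH 7.3 HEPES buffer. Anti-His Eu/anti-GST APC added for 1.5 h; decreased TR-FRET ratio vs DMSO gives IC50.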

NRAS Q61K = NRAS Q61K (Homo sapiens, UniProt P01111+P62937, Q61K); settings: NRAS Q61K; read-out: NRAS Q61K FRET data IC50
NRAS Q61K, sequence (P01111 whole entry Q61K): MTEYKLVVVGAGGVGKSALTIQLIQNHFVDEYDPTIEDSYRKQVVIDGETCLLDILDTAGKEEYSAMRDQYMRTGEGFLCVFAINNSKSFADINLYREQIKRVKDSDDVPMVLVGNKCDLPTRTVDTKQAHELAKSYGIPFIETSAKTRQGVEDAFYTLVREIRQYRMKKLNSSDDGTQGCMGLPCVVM
NRAS Q61K, sequence (P62937 whole entry): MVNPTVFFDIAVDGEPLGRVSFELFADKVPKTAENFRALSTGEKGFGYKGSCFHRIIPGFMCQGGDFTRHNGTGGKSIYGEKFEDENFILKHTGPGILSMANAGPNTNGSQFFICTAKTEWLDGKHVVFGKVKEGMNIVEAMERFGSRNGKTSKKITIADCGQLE
How it was run: (§1)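 TR-FRET in 25 mM HEPES pH 7.3, 100 mM NaCl, 5 mM MgCl2, 0.1% BSA, 0.002% Tween20 with 25 μM Cyclophilin A, 12.5 nM His6-Ras-GMPPNP, 50 nM GST-BRAF RBD; compound 10-point 3-fold series from 30 μM. After 3 h at 25 °C, Eu anti-His/APC anti-GST added for 1.5 h; IC50 from ratio decrease versus DMSO.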

KRAS Q61H = KRAS Q61H (Homo sapiens, UniProt P01116+P62937, Q61H); settings: KRAS Q61H; read-out: KRAS Q61H FRET data IC50
KRAS Q61H, sequence (P01116 1-169 isoform P01116-2 Q61H limits assumed): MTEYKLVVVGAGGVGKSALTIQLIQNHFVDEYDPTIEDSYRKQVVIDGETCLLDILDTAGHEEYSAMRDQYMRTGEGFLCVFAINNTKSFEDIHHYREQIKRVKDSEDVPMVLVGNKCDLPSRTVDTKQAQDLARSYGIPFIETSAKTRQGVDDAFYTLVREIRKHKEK
KRAS Q61H, sequence (P62937 whole entry): as the sequence (P62937 whole entry) above
How it was run: as §1

KRAS G12D = KRAS G12D (Homo sapiens, UniProt P01116+P62937, G12D); settings: Ras-Raf disruption, with Cyclophilin A; read-out: KRAS G12D FRET data IC50
KRAS G12D, sequence (P01116 1-169 isoform P01116-2 G12D limits assumed): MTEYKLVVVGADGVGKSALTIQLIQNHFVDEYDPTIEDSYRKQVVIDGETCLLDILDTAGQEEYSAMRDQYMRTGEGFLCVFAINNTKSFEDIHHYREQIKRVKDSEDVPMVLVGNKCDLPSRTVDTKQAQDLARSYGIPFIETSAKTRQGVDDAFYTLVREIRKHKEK
KRAS G12D, sequence (P62937 whole entry): as the sequence (P62937 whole entry) above
How it was run: as §1

NRAS WT = NRAS WT (Homo sapiens, UniProt P01111+P62937); settings: NRAS WT; read-out: NRAS WT FRET data IC50
NRAS WT, sequence (P01111 whole entry): as the sequence (P01111 whole entry Q61K) above, with K61Q counted along it
NRAS WT, sequence (P62937 whole entry): as the sequence (P62937 whole entry) above
How it was run: as §1

KRAS WT = KRAS WT (Homo sapiens, UniProt P01116+P62937); settings: Ras-Raf disruption, with Cyclophilin A; read-out: KRAS WT FRET data IC50
KRAS WT, sequence (P01116 1-169 isoform P01116-2 limits assumed): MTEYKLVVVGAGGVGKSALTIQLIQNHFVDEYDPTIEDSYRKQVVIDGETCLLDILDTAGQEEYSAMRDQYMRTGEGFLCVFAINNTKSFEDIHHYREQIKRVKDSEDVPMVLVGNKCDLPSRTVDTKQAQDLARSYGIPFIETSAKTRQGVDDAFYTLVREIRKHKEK
KRAS WT, sequence (P62937 whole entry): as the sequence (P62937 whole entry) above
How it was run: as §1

NRAS G12C = NRAS G12C (Homo sapiens, UniProt P01111+P62937, G12C); settings: NRAS G12C; read-out: NRAS G12C FRET data IC50
NRAS G12C, sequence (P01111 whole entry G12C): as the sequence (P01111 whole entry Q61K) above, with G12C, K61Q counted along it
NRAS G12C, sequence (P62937 whole entry): as the sequence (P62937 whole entry) above
How it was run: as §1

KRAS G12S = KRAS G12S (Homo sapiens, UniProt P01116+P62937, G12S); settings: Ras-Raf disruption, with Cyclophilin A; read-out: KRAS G12S FRET data IC50
KRAS G12S, sequence (P01116 1-169 isoform P01116-2 G12S limits assumed): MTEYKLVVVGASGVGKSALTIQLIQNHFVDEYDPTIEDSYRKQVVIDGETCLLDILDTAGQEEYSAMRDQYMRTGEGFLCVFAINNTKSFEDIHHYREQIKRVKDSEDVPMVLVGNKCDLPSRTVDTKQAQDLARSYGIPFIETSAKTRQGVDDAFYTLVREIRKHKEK
KRAS G12S, sequence (P62937 whole entry): as the sequence (P62937 whole entry) above
How it was run: as §1

NRAS Q61R = NRAS Q61R (Homo sapiens, UniProt P01111+P62937, Q61R); settings: NRAS Q61R; read-out: NRAS Q61R FRET data IC50
NRAS Q61R, sequence (P01111 whole entry Q61R): as the sequence (P01111 whole entry Q61K) above, with K61R counted along it
NRAS Q61R, sequence (P62937 whole entry): as the sequence (P62937 whole entry) above
How it was run: as §1

KRAS G13C = KRAS G13C (Homo sapiens, UniProt P01116+P62937, G13C); settings: Ras-Raf disruption, with Cyclophilin A; read-out: KRAS G13C FRET data IC50
KRAS G13C, sequence (P01116 1-169 isoform P01116-2 G13C limits assumed): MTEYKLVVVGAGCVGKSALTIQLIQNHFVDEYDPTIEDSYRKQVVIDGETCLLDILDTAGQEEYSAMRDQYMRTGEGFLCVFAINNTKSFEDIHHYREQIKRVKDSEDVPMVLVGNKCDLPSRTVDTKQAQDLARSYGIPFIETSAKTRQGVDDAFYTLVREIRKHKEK
KRAS G13C, sequence (P62937 whole entry): as the sequence (P62937 whole entry) above
How it was run: as §1

KRAS G13D = KRAS G13D (Homo sapiens, UniProt P01116+P62937, G13D); settings: Ras-Raf disruption, with Cyclophilin A; read-out: KRAS G13D FRET data IC50
KRAS G13D, sequence (P01116 1-169 isoform P01116-2 G13D limits assumed): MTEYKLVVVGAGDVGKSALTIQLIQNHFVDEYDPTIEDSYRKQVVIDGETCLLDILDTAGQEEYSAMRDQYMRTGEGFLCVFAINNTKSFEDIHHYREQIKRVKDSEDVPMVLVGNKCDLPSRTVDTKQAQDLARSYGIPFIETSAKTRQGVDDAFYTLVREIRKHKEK
KRAS G13D, sequence (P62937 whole entry): as the sequence (P62937 whole entry) above
How it was run: as §1

KRAS G12V = KRAS G12V (Homo sapiens, UniProt P01116+P62937, G12V); settings: Ras-Raf disruption, with Cyclophilin A; read-out: KRAS G12V FRET data IC50
KRAS G12V, sequence (P01116 1-169 isoform P01116-2 G12V limits assumed): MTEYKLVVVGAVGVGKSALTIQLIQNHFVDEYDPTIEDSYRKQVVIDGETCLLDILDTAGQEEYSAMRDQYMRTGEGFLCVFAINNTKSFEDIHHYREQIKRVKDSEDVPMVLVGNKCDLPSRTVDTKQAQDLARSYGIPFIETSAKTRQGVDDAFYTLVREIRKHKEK
KRAS G12V, sequence (P62937 whole entry): as the sequence (P62937 whole entry) above
How it was run: as §1

KRAS G12C, sequence (P01116 1-169 isoform P01116-2 G12C limits assumed): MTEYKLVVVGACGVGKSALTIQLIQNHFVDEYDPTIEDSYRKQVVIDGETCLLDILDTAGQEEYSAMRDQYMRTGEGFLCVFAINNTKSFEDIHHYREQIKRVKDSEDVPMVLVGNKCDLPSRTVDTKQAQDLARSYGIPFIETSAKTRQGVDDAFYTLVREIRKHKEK
KRAS G12C, sequence (P62937 whole entry): as the sequence (P62937 whole entry) above

Structure (SMILES) | pIC50 (KRAS G12C) | pIC50 (NRAS Q61K) | pIC50 (KRAS Q61H) | pIC50 (KRAS G12D) | pIC50 (NRAS WT) | pIC50 (KRAS WT) | pIC50 (NRAS G12C) | pIC50 (KRAS G12S) | pIC50 (NRAS Q61R) | pIC50 (KRAS G13C) | pIC50 (KRAS G13D) | pIC50 (KRAS G12V)
CCn1c(-c2cccnc2[C@H](C)OC)c2c3cc(ccc31)-c1csc(n1)C[C@H](NC(=O)[C@H](C(C)C)N(C)C(=O)N(C)[C@H]1CCN(C(=O)[C@@H]3CN3)C1)C(=O)N1CCC[C@H](N1)C(=O)OCC(C)(C)C2 (atropisomer, axis not shown) [Example 310] | 6.00 to 7.00 | 6.00 to 7.00 | 6.00 to 7.00 | 5.00 to 6.00 | 6.00 to 7.00 | 6.00 to 7.00 | 6.00 to 7.00 | 6.00 to 7.00 | 6.00 to 7.00 | 6.00 to 7.00 | 5.00 to 6.00 | 6.00 to 7.00
CCn1c(-c2cccnc2[C@H](C)OC)c2c3cc(ccc31)-c1cc(O)cc(c1)C[C@H](NC(=O)[C@H](C(C)C)N(C)C(=O)[C@]1(F)CCN(C(=O)[C@H]3CN3)C1)C(=O)N1CCC[C@H](N1)C(=O)OCC(C)(C)C2 (atropisomer, axis not shown) [Example 311] | > 8.00 | 6.00 to 7.00 | 7.00 to 8.00 | 6.00 to 7.00 | 7.00 to 8.00 | 6.00 to 7.00 | > 8.00 | 6.00 to 7.00 | 6.00 to 7.00 | 7.00 to 8.00 | 6.00 to 7.00 | 6.00 to 7.00
CCn1c(-c2cccnc2[C@H](C)OC)c2c3cc(ccc31)-c1csc(n1)C[C@H](NC(=O)[C@H](C(C)C)N(C)C(=O)N1CCC(CN(C)C(=O)[C@H]3CN3)CC1)C(=O)N1CCC[C@H](N1)C(=O)OCC(C)(C)C2 (atropisomer, axis not shown) [Example 326] | 7.00 to 8.00 | 7.00 to 8.00 | 7.00 to 8.00 | 6.00 to 7.00 | 7.00 to 8.00 | 7.00 to 8.00 | 7.00 to 8.00 | 7.00 to 8.00 | 7.00 to 8.00 | 7.00 to 8.00 | 6.00 to 7.00 | 7.00 to 8.00
CCn1c(-c2cccnc2[C@H](C)OC)c2c3cc(ccc31)-c1cc(O)cc(c1)C[C@H](NC(=O)[C@H](C(C)C)N(C)C(=O)CN(C)S(=O)(=O)[C@H]1CN1C)C(=O)N1CCC[C@H](N1)C(=O)OCC(C)(C)C2 (single isomer, unassigned) [Example 91] | 7.00 to 8.00 | 6.00 to 7.00 | 7.00 to 8.00 | 6.00 to 7.00 | 7.00 to 8.00 | 7.00 to 8.00 | 7.00 to 8.00 | 7.00 to 8.00 | 6.00 to 7.00 | 7.00 to 8.00 | 6.00 to 7.00 | 6.00 to 7.00
CCn1c(-c2cccnc2[C@H](C)OC)c2c3cc(ccc31)-c1cc(O)cc(c1)C[C@H](NC(=O)[C@H](C(C)C)N(C)C(=O)CN(C)S(=O)(=O)[C@@H]1CN1C)C(=O)N1CCC[C@H](N1)C(=O)OCC(C)(C)C2 (single isomer, unassigned) [Example 92] | 7.00 to 8.00 | 6.00 to 7.00 | 7.00 to 8.00 | 6.00 to 7.00 | 7.00 to 8.00 | 7.00 to 8.00 | 7.00 to 8.00 | 7.00 to 8.00 | 6.00 to 7.00 | 7.00 to 8.00 | 6.00 to 7.00 | 6.00 to 7.00
CCn1c(-c2cccnc2[C@H](C)OC)c2c3cc(ccc31)-c1cc(O)cc(c1)C[C@H](NC(=O)[C@H](C(C)C)N(C)C(=O)C1CCN(S(=O)(=O)[C@H]3CN3C)CC1)C(=O)N1CCC[C@H](N1)C(=O)OCC(C)(C)C2 (single isomer, unassigned) [Example 108] | 6.00 to 7.00 | 6.00 to 7.00 | 7.00 to 8.00 | 5.00 to 6.00 | 6.00 to 7.00 | 6.00 to 7.00 | 6.00 to 7.00 | 6.00 to 7.00 | 6.00 to 7.00 | 7.00 to 8.00 | 6.00 to 7.00 | 6.00 to 7.00

— US20230233569A1 (Revolution Medicines, Inc., priority 2020, published 2023)
